Data taken from paper PMC5770468, “Cardiac glycoside/aglycones inhibit HIV-1 gene expression by a mechanism requiring MEK1/2-ERK1/2 signaling” (Scientific Reports, 2018).
Read-outs that look alike come from different tables or passages of the source.

Columns and labels:
HIV-1 Rev = assay: Immunoblot of HIV-1 Rev (p19) in HeLa rtTA-HIV-ΔMls cells; assay type: cell-based
Description: (§1) To monitor HIV-1 gene expression or replication, Gag release into cell culture supernatants were assayed by ELISA using a p24^CA antigen capture assay kit (AIDS & Cancer Virus Program, NCI-Frederick, Frederick, MD USA). Media harvested from HIV clinical isolates were diluted ~10 fold (or as necessary) prior to performing this assay. For analysis of HIV-1 and SR protein expression (and phosphorylation states with calf intestinal alkaline phosphatase treatments), cells were lysed and analyzed by western blot as previously outlined. Phosphatase inhibitors (e.g. 10 mM sodium fluoride, 2 mM sodium orthovanadate) were added to solutions requiring phospho protein analyses. An anti-chicken NKA antibody (α6F, #a6F–c, Developmental Studies Hybridoma Bank, The University of Iowa, contributed by Douglas M. Fambrough, The Johns Hopkins University) was used as specified to detect NKA α1- and β1-subunits across species. […] Activation of MAPKs was determined by western blot quantitation and calculation of phospho/total protein levels. […] Images were exported as TIF files for assembly, rotation, and equal brightness/contrast adjustments in ImageJ or Microsoft Powerpoint. Some lanes were cropped and rearranged from the same blot/gel as indicated. In representative gel/blot sets, samples were electrophoresed from the same experiment as controls, resolved simultaneously on identically cast gel(s), transferred to same PVDF (by either wet electrophoretic or by Bio-Rad Trans-Blot® Turbo Transfer System), and detected at same time. Marked locations of molecular weight (MW) standards are shown on the left as a reference. […] SUnSET analysis of total cellular protein synthesis. HeLa rtTA-HIV-ΔMls cells were cultured in the presence/absence of compound and pathway inhibitor (if any) and Dox induced for ~24 h as already described, then treated with puromycin (10 μg/mL, Sigma-Aldrich, #P8833) for 30 min to label nascent proteins prior to harvest. As control, 10 µM of cycloheximide (Sigma-Aldrich, #C4849) was added to some cells prior to puromycin treatment. Cells were subsequently washed, whole cell lysates prepared, and proteins quantified by western blot using an anti-puromycin antibody (EMD Millipore, #anti-12D10) as described above. Transfection of plasmid DNA into cells. Transfection of pCMV6-HA-AKT-1 (WT, KM, or Myr) or CMV myc and with CMV tTA pA and CMV PLAP plasmids into HeLa rtTA-HIV-ΔMls cells were performed by polyethylene imine (PEI) transfection as previously described[9],[10].

HeLa rtTA-HIV-ΔMls cells = assay type: cell-based, human; conditions: XTT
Description: Drug/compounds were tested for effects on HIV-1 gene expression using inducible Tet-ON HIV-1 cell lines [HeLa rtTA-HIV-ΔMls or rtTA-HIV(Gag-GFP)] containing a HIV-1 (LAI) provirus activatable by Dox or tetracycline transactivator (tTA)[69]. The rtTA-HIV-ΔMls provirus was modified and used as previously reported[9]–[11],[70]. The rtTA-HIV(Gag-GFP) provirus was generated by deletion of the PR and RT coding regions within pol and insertion of GFP to the 3′ of gag, creating GFP fused to the C-terminal of Gag. After 4 h of drug/compound treatment, HIV-1 gene expression was activated with Dox (2 μg/mL) or tTA (described below). Equal concentrations of DMSO were present in each experiment. After ~20 h, cells and media were harvested to monitor the effects of drug/compound treatments as described below. HIV-1 gene expression was quantified via p24^CA ELISA or monitoring Gag-GFP fluorescence in cells as described below. In parallel, cell viability of treatments were assessed by XTT assay (Sigma-Aldrich, #TOX2). For confirmatory tests, the CD4^+ HIV-1 T-cell line, 24ST1NLESG, from J. Dougherty, was treated with drug/compounds and HIV-1 gene expression activated by 1.8 µM of phorbol 12-myristate 13-acetate (PMA) as previously described[10],[11],[71].
Supplementary Figure S2. CSs inhibit HIV-1 gene expression in a dose-dependent manner. […]

clinical strains of HIV = assay: microbe, parasite or virus in culture; assay type: cell-based; conditions: for IC50 / IC90: Human immunodeficiency virus 1, PBMC, 336 h; for IC50: read-out: IC50 (nM) HIV-infected PBMCs; for IC90: read-out: IC90, viral growth in HIV-infected PBMCs
Description: PBMCs from HIV infected patients were depleted of CD8^+ T cells (Supplementary Fig. S3), activated by anti-CD3 and anti-CD28 antibodies, and treated 20 d with indicated concentrations of drug/compound. HIV particle formation was quantitated by p24^CA ELISA of cell supernatants and viability of cells were assayed by XTT. […] Graphs of viral growth (p24 protein levels) and cell viability (gray circles, adjacent y-axis) of cells treated with drug/compounds (red triangles) or DMSO (black circles) are shown. The drug 3TC and the CS digoxin (d–e) were provided for comparison. […] Dose-response curves of CS effects on HIV replication (relative Gag expression, black circles) and cell viability (gray circles) were measured on day 14.
PBMCs were then seeded to 24-well plates in the presence/absence of indicated drug/compounds (0.5 mL final) which were pre-diluted in RPMI^+++ in the same manner as described above. Every 3–4 days, ~0.25 mL of media was harvested for assays and replenished with ~0.25 mL of fresh medium with drug/compound and 20 U/mL of IL-2. HIV growth in cultures was monitored by p24^CA ELISA of cell supernatants harvested (detailed below) and the effect of compounds on cell viability were monitored by XTT assay.
as §1

[1] = p24CA ELISA, day 14, inferred near maximal IC50s

Structure (SMILES) | Rev accumulation (HIV-1 Rev) | IC90 (clinical strains of HIV; Day14, p24CA ELISA) | IC50 (clinical strains of HIV; [1]) | also measured
CC(=O)O[C@H]1C[C@H](O[C@H]2[C@@H](O)C[C@H](O[C@H]3[C@@H](O)C[C@H](O[C@H]4CC[C@@]5(C)[C@H](CC[C@@H]6[C@@H]5C[C@@H](O)[C@]5(C)[C@@H](C7=CC(=O)OC7)CC[C@]65O)C4)O[C@@H]3C)O[C@@H]2C)O[C@H](C)[C@H]1O[C@@H]1O[C@H](CO)[C@@H](O)[C@H](O)[C@H]1O [Lanatoside C] | reduce Rev accumulation |  |  | 
C[C@]12CC[C@H](O)C[C@H]1CC[C@@H]1[C@@H]2C[C@@H](O)[C@]2(C)[C@@H](C3=CC(=O)OC3)CC[C@]12O [Digoxigenin] |  |  |  | CC20 (cytotoxic effects ≥20%) (HeLa rtTA-HIV-ΔMls cells): 600 nM
C[C@H]1O[C@@H](O[C@H]2[C@@H](O)C[C@H](O[C@H]3[C@@H](O)C[C@H](O[C@H]4CC[C@@]5(C)[C@H](CC[C@@H]6[C@@H]5C[C@@H](O)[C@]5(C)[C@@H](C7=CC(=O)OC7)CC[C@]65O)C4)O[C@@H]3C)O[C@@H]2C)C[C@H](O)[C@@H]1O [Digoxin] | reduce Rev accumulation |  |  | IC50 (clinical strains of HIV): ~1.1 nM; IC90 (clinical strains of HIV): 2 nM
C[C@H]1O[C@@H](O[C@H]2[C@@H](O)C[C@H](O[C@H]3[C@@H](O)C[C@H](O[C@H]4CC[C@@]5(C)[C@H](CC[C@@H]6[C@@H]5CC[C@]5(C)[C@@H](C7=CC(=O)OC7)CC[C@]65O)C4)O[C@@H]3C)O[C@@H]2C)C[C@H](O)[C@@H]1O [Digitoxin] | no effect on Rev accumulation | 7.5 nM | ~1.3 nM | concentration to inhibit viral replication in HIV-infected PBMCs, fold lower than serum concentration in patients treated for heart conditions (clinical strains of HIV): 15–26 fold
C[C@@H]1O[C@@H](O[C@H]2C[C@@H](O)[C@]3(CO)[C@H]4[C@H](O)C[C@]5(C)[C@@H](C6=CC(=O)OC6)CC[C@]5(O)[C@@H]4CC[C@]3(O)C2)[C@H](O)[C@H](O)[C@H]1O [Ouabain] | no effect on Rev accumulation |  |  | 
C[C@]12CC[C@H](O)C[C@H]1CC[C@@H]1[C@@H]2CC[C@]2(C)[C@@H](C3=CC(=O)OC3)CC[C@]12O [Digitoxigenin] |  | 2 nM | ~1.1 nM | toxicity (HeLa rtTA-HIV-ΔMls cells; at 1000 nM): no toxicity
